# Reference: article PMC12751012, “Nanoscale Direct-to-Biology Optimization and Structural Insights into Selective S. aureus TrmD Inhibitors” (Journal of Medicinal Chemistry, 2025)
# Target: T1, S. aureus TrmD (Staphylococcus aureus, UniProt Q2FZ43)
# T1 construct: made in house; host or cells: E. coli BL21
# T1 sequence (Q2FZ43 1-245): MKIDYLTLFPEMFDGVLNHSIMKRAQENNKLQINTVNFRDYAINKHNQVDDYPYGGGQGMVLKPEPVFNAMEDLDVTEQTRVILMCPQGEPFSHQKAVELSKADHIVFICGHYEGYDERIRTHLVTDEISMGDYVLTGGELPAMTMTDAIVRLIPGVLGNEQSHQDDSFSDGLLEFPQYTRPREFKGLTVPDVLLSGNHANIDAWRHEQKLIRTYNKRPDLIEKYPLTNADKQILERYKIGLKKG
# Assay: nanoSAR direct-to-biology FP displacement screening of crude triazoles
# Assay type: binding
# Details: crude triazole at 1 μM, assuming full conversion; 500 nM TrmD, 10 nM tracer 4; read-out: % displaced tracer
# From the text: Next, we conducted an S. aureus TrmD-targeting nanoSAR study. For this, alkyne 7 was reacted on a 96 nmol scale with an in-house diversity-oriented azide library (N = 320, mean pairwise Tanimoto similarity = 0.11) designed to cover a large chemical fragment space, generating a panel of 320 crude triazoles ready for FP assay investigation. The composition of the azide library is designed to be chemically diverse in several categories, including physicochemical properties such as polar surface area, lipophilicity, and the number of hydrogen bond donors and acceptors, as well as structural features like the number of aromatic rings (Figure S23). A complete list of chemical structures included in the azide library can be found in Table S4. In situ reaction conditions for CuAAC were adapted from Gehrtz et al., utilizing CuSO4, which is reduced in situ to Cu(I) by sodium ascorbate and stabilized by TBTA. Degassed water and DMSO (1:1) were used as solvents to prevent the oxidation from Cu(I) to Cu(II). For the synthesis of the triazole library, a master mix was prepared, containing all reaction components except the azides. All reactions were started by the addition of the respective azide in 24 μL at a final product concentration of 4 mM (96 nmol). Reaction mixtures were incubated for 16 h at room temperature and under an argon atmosphere in sealed 96-well plates.
# For FP assay screening, we used 500 nM of S. aureus TrmD and 10 nM of tracer 4 in a total volume of 40 μL in 96-well plates. We performed control measurements and defined 10 nM of tracer 4 in buffer as 100% displacement and the DMSO control as 0% tracer displacement. […] The results of the FP screening were visualized in a waterfall plot and plate-based heatmaps (Figure , Figure S3).
# Fluorescence polarization (FP) assays were performed as follows. The assays for H. influenzae TrmD have been described previously. All assays were conducted in technical triplicate using black 96-well half area plates. For the FP assays, a tracer (20 nM Cy5TPD for E. coli and H. influenzae TrmD, 10 nM tracer 4 for S. aureus TrmD) was mixed with the respective enzyme (2 μM E. coli TrmD, 2 μM H. influenzae TrmD, 500 nM S. aureus TrmD) in buffer (E. coli and H. influenzae TrmD: 50 mM HEPES, 500 mM NaCl, 5% Glycerol, pH 7.5, S. aureus TrmD: 40 mM Tris HCl, 100 mM NaCl, 10 mM MgCl2, 5% Glycerol, pH 7.5). The compounds were added in varying concentrations for K D-value determination. […] The Z-factor for tracer 4 was determined by measuring 48 replicates of the free tracer (positive controls, PC) and 48 replicates of a mixture of enzyme and tracer (negative controls, NC). The Z-factor is defined in terms of the means (μ) and standard deviations (σ) of the positive and negative controls and calculated as Z = 1–(3*(σnc + σpc)/(μnc–μpc)). […] Polarization values (mP) were determined from polarization-specific parallel and orthogonal fluorescence intensities. K D-values were calculated in GraphPad Prism 8.0.1 using the four-parameter Hill equation: y(% tracer bound) = bottom + ([ligand]-slope) × (top–bottom)/([ligand]-slope + K Dslope).
# A commercial azide diversity library (Enamine) containing 320 azides at a concentration of 100 mM in DMSO in a 96-well tube rack was employed for this nanoSAR study. For the reaction of the azides with alkyne 7 via CuAAC, a master mix was prepared. […] The solvents were degassed with argon to avoid oxidation of the copper(I) during the reaction. To each well of a 96-well PCR plate (Applied Biosystems MicroAmp) were added 23 μL of the master mix and 1 μL of the 100 mM azide stock. The final concentrations in the Mastermix were: 8.7 mM sodium ascorbate (8.3 mM in reaction well), 1.1 mM TBTA (1.0 mM in reaction well), 4.3 mM 7 (4.1 mM in reaction well), 1.3 mM CuSO4×5 H2O (1.2 mM in reaction well).
row,SMILES,inhibition at 1 µM [%]
1,"O=c1[nH]cnc2[nH]cc(-c3cn(C[C@@H]4CC[C@H]4C(F)(F)F)nn3)c12 [Compound 01C12, FC(F)(F)[C@H]1[C@H](CN2N=NC(C=3C=4C(=O)NC=NC4NC3)=C2)CC1]",47
2,"COC(=O)[C@@H]1CCC[C@H](n2cc(-c3c[nH]c4nc[nH]c(=O)c34)nn2)C1 [Compound 01D01, O=C(OC)[C@H]1C[C@@H](N2N=NC(C=3C=4C(=O)NC=NC4NC3)=C2)CCC1]",33
3,"O=c1[nH]cnc2[nH]cc(-c3cn(C[C@H]4OCCOC45CCC5)nn3)c12 [Compound 01D02, O=C1NC=NC=2NC=C(C=3N=NN(C3)C[C@H]4OCCOC45CCC5)C12]",61
4,"O=c1[nH]cnc2[nH]cc(-c3cn([C@H]4CC[C@@H]4O)nn3)c12 [Compound 01D04, O=C1NC=NC=2NC=C(C=3N=NN(C3)[C@@H]4[C@@H](O)CC4)C12]",21
5,"O=c1[nH]cnc2[nH]cc(-c3cn(-c4cccc5cnccc45)nn3)c12 [Compound 01D05, O=C1NC=NC=2NC=C(C=3N=NN(c4c5c(cncc5)ccc4)C3)C12]",16
6,"CCc1nnc(Cn2cc(-c3c[nH]c4nc[nH]c(=O)c34)nn2)o1 [Compound 01D06, O=C1NC=NC=2NC=C(C=3N=NN(C3)CC=4OC(=NN4)CC)C12]",31
7,"CCOc1ccc(-n2cc(-c3c[nH]c4nc[nH]c(=O)c34)nn2)cc1 [Compound 01D07, O=C1NC=NC=2NC=C(C=3N=NN(c4ccc(OCC)cc4)C3)C12]",19
8,"Cc1ccccc1-n1cc(-c2c[nH]c3nc[nH]c(=O)c23)nn1 [Compound 01D08, O=C1NC=NC=2NC=C(C=3N=NN(c4c(cccc4)C)C3)C12]",9
9,"O=c1[nH]cnc2[nH]cc(-c3cn(CCn4cccn4)nn3)c12 [Compound 01D09, O=C1NC=NC=2NC=C(C=3N=NN(C3)CCN4N=CC=C4)C12]",39
10,"Cc1ccc([C@@H](O)[C@H](C)n2cc(-c3c[nH]c4nc[nH]c(=O)c34)nn2)cc1 [Compound 01D10, O=C1NC=NC=2NC=C(C=3N=NN(C3)[C@H]([C@H](O)c4ccc(cc4)C)C)C12]",49
11,"COC(=O)c1sccc1-n1cc(-c2c[nH]c3nc[nH]c(=O)c23)nn1 [Compound 01D11, S1C(C(=O)OC)=C(N2N=NC(C=3C=4C(=O)NC=NC4NC3)=C2)C=C1]",21
12,"COC(=O)c1cnoc1Cn1cc(-c2c[nH]c3nc[nH]c(=O)c23)nn1 [Compound 01D12, O=C(OC)C1=C(ON=C1)CN2N=NC(C=3C=4C(=O)NC=NC4NC3)=C2]",38
13,"CN(C)c1ccc(-n2cc(-c3c[nH]c4nc[nH]c(=O)c34)nn2)cc1 [Compound 01E01, O=C1NC=NC=2NC=C(C=3N=NN(c4ccc(N(C)C)cc4)C3)C12]",33
14,"C[C@H](c1ccccc1F)n1cc(-c2c[nH]c3nc[nH]c(=O)c23)nn1 [Compound 01E02, Fc1c(cccc1)[C@H](N2N=NC(C=3C=4C(=O)NC=NC4NC3)=C2)C]",50
15,"CCc1nc(Cn2cc(-c3c[nH]c4nc[nH]c(=O)c34)nn2)cs1 [Compound 01E03, S1C(=NC(=C1)CN2N=NC(C=3C=4C(=O)NC=NC4NC3)=C2)CC]",75
16,"O=c1[nH]cnc2[nH]cc(-c3cn(Cc4cn5ccccc5n4)nn3)c12 [Compound 01E04, O=C1NC=NC=2NC=C(C=3N=NN(C3)CC=4N=C5N(C4)C=CC=C5)C12]",46
17,"COC(=O)Cn1cc(-c2c[nH]c3nc[nH]c(=O)c23)nn1 [Compound 01E05, O=C(OC)CN1N=NC(C=2C=3C(=O)NC=NC3NC2)=C1]",11
18,"COc1ccc(-n2cc(-c3c[nH]c4nc[nH]c(=O)c34)nn2)cc1OC [Compound 01E06, O=C1NC=NC=2NC=C(C=3N=NN(c4cc(OC)c(OC)cc4)C3)C12]",19

row,SMILES,inhibition at 1 µM [%]
1,"O=c1[nH]cnc2[nH]cc(-c3cn(CCN4CCOCC4)nn3)c12 [Compound 01E07, O=C1NC=NC=2NC=C(C=3N=NN(C3)CC[NH+]4CCOCC4)C12]",34
2,"CN(C)CCCn1cc(-c2c[nH]c3nc[nH]c(=O)c23)nn1 [Compound 01E08, O=C1NC=NC=2NC=C(C=3N=NN(C3)CCC[NH+](C)C)C12]",35
3,"CCNC(=O)Cn1cc(-c2c[nH]c3nc[nH]c(=O)c23)nn1 [Compound 01E09, O=C1NC=NC=2NC=C(C=3N=NN(C3)CC(=O)NCC)C12]",33
4,"Cn1cc(-n2cc(-c3c[nH]c4nc[nH]c(=O)c34)nn2)cn1 [Compound 01E10, O=C1NC=NC=2NC=C(C=3N=NN(C=4C=NN(C4)C)C3)C12]",17
5,"Cc1csc(C[C@H](C)n2cc(-c3c[nH]c4nc[nH]c(=O)c34)nn2)n1 [Compound 01E11, S1C(=NC(=C1)C)C[C@@H](N2N=NC(C=3C=4C(=O)NC=NC4NC3)=C2)C]",31
6,"O=c1[nH]cnc2[nH]cc(-c3cn(-c4ccccc4-c4ccccc4)nn3)c12 [Compound 01E12, O=C1NC=NC=2NC=C(C=3N=NN(c4c(c5ccccc5)cccc4)C3)C12]",34
7,"N#CC1(Cn2cc(-c3c[nH]c4nc[nH]c(=O)c34)nn2)CCCC1 [Compound 01F01, O=C1NC=NC=2NC=C(C=3N=NN(C3)CC4(C#N)CCCC4)C12]",74
8,"C[C@@H](C(=O)Nc1ccccc1)n1cc(-c2c[nH]c3nc[nH]c(=O)c23)nn1 [Compound 01F02, O=C1NC=NC=2NC=C(C=3N=NN(C3)[C@H](C(=O)Nc4ccccc4)C)C12]",28
9,"CS(=O)(=O)NCCn1cc(-c2c[nH]c3nc[nH]c(=O)c23)nn1 [Compound 01F03, S(=O)(=O)(NCCN1N=NC(C=2C=3C(=O)NC=NC3NC2)=C1)C]",62
10,"Cn1cc(Cn2cc(-c3c[nH]c4nc[nH]c(=O)c34)nn2)cn1 [Compound 01F04, O=C1NC=NC=2NC=C(C=3N=NN(C3)CC=4C=NN(C4)C)C12]",57
11,"NC(=O)c1cc(-n2cc(-c3c[nH]c4nc[nH]c(=O)c34)nn2)ccn1 [Compound 01F05, O=C(N)c1nccc(N2N=NC(C=3C=4C(=O)NC=NC4NC3)=C2)c1]",16
12,"O=c1[nH]cnc2[nH]cc(-c3cn(Cc4cnc(C(F)(F)F)s4)nn3)c12 [Compound 01F06, S1C(=NC=C1CN2N=NC(C=3C=4C(=O)NC=NC4NC3)=C2)C(F)(F)F]",72
13,"Cc1nc2ccc(-n3cc(-c4c[nH]c5nc[nH]c(=O)c45)nn3)cc2s1 [Compound 01F07, S1c2c(N=C1C)ccc(N3N=NC(C=4C=5C(=O)NC=NC5NC4)=C3)c2]",11
14,"O=c1[nH]cnc2[nH]cc(-c3cn(-c4ccc5c(c4)CCC5)nn3)c12 [Compound 01F08, O=C1NC=NC=2NC=C(C=3N=NN(c4cc5c(cc4)CCC5)C3)C12]",5
15,"Cc1nc(Cn2cc(-c3c[nH]c4nc[nH]c(=O)c34)nn2)cs1 [Compound 01F09, S1C(=NC(=C1)CN2N=NC(C=3C=4C(=O)NC=NC4NC3)=C2)C]",53
16,"O=c1[nH]cnc2[nH]cc(-c3cn(Cc4cccc5ccccc45)nn3)c12 [Compound 01F10, O=C1NC=NC=2NC=C(C=3N=NN(C3)Cc4c5c(ccc4)cccc5)C12]",84
17,"C[C@@H](n1cc(-c2c[nH]c3nc[nH]c(=O)c23)nn1)C12CC(CO1)C2 [Compound 01F11, O=C1NC=NC=2NC=C(C=3N=NN(C3)[C@@H](C45OCC(C4)C5)C)C12]",26
